Source: article PMC8222254, “Self-assembly of an anion receptor with metal-dependent kinase inhibition and potent in vitro anti-cancer properties” (Nature Communications, 2021)
Several values for one entry are separate records, joined by “and”; a condition that tells them apart may be missing. Identical values can stand only once.

Key:
Experiment in all cases: Kinase inhibition screen, cell-free 33P ATP assay at 10 μM
Assay type in all cases: biochemical
[1] = target: T1, 140 purified human kinases (Homo sapiens, UniProt O15264); conditions: p38d MAPK
T1 sequence (O15264 1-365): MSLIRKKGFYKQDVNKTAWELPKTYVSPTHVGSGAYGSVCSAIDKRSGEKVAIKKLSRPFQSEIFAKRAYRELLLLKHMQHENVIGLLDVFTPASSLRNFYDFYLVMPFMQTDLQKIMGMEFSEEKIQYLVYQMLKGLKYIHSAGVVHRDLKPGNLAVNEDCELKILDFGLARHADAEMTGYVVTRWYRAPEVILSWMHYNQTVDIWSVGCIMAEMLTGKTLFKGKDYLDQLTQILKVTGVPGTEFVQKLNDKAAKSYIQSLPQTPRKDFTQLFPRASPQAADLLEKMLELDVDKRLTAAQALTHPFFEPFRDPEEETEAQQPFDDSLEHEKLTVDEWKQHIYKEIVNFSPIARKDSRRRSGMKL
Outline: (§1)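 Each complex tested in duplicate at 10 μM; cell-free radiometric assay using ^33P ATP on purified enzymes. Hits mapped by HGNC symbol onto the kinome tree.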

[2] = target: T2, 140 purified human kinases (Homo sapiens, UniProt P33981); conditions: TTK
T2 sequence (P33981 1-857): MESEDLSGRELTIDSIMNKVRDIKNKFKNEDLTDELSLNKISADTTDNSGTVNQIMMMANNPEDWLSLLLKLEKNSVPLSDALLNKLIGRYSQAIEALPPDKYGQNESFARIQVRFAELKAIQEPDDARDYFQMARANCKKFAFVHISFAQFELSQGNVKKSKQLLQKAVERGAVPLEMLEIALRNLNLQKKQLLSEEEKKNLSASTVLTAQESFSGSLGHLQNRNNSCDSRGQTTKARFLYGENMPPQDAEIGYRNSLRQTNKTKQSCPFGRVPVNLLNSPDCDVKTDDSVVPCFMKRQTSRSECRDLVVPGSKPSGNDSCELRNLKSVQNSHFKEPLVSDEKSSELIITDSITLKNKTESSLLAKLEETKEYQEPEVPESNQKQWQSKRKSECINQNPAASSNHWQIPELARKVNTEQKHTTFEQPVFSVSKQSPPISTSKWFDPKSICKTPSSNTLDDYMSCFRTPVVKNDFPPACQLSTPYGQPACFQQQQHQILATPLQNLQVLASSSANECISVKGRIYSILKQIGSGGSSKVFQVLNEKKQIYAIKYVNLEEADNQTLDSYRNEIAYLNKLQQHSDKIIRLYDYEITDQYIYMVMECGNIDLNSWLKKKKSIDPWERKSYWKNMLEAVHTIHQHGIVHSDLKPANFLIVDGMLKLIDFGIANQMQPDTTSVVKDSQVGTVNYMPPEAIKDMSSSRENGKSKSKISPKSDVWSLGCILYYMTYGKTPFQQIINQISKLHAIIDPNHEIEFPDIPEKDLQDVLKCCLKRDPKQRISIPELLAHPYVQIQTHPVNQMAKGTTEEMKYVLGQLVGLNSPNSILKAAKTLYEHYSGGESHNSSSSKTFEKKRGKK
Outline: as §1

[3] = target: 140 purified human kinases (Homo sapiens, UniProt P49841); conditions: GSK3b
Sequence of 140 purified human kinases (Homo sapiens, UniProt P49841) (P49841 whole entry): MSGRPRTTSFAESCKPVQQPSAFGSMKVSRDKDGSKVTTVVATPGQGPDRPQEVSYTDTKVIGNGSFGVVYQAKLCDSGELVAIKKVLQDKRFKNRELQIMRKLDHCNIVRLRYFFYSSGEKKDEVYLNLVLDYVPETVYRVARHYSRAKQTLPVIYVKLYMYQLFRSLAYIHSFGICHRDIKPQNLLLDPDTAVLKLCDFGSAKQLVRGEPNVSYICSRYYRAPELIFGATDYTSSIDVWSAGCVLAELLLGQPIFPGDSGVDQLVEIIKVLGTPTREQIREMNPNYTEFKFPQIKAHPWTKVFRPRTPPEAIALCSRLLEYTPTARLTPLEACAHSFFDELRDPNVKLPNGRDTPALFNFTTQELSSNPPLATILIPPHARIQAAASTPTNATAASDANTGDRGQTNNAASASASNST
Outline: as §1

[4] = target: 140 purified human kinases (Homo sapiens, UniProt P51617)
Sequence of 140 purified human kinases (Homo sapiens, UniProt P51617) (P51617 whole entry): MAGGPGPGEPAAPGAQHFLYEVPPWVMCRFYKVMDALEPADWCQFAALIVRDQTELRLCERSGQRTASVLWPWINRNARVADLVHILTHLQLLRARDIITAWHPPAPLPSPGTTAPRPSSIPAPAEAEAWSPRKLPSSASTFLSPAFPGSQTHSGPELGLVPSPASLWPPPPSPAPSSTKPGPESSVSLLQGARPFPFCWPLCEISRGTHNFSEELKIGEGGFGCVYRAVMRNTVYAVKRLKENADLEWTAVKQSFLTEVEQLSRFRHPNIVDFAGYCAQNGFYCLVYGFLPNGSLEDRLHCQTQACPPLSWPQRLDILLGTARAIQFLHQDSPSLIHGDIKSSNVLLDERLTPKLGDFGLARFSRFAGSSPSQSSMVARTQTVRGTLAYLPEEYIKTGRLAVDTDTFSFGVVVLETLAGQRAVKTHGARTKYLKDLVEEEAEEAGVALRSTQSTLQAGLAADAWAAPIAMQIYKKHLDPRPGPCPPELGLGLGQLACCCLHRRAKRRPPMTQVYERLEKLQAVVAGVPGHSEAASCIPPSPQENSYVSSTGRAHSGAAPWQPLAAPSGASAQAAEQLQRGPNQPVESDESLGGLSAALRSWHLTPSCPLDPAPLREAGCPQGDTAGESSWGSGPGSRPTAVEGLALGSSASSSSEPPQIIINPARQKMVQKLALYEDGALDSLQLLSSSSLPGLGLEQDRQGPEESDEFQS
Outline: as §1

[5] = target: T3, 140 purified human kinases (Homo sapiens, UniProt Q12851); conditions: GCK
T3 sequence (Q12851 1-820): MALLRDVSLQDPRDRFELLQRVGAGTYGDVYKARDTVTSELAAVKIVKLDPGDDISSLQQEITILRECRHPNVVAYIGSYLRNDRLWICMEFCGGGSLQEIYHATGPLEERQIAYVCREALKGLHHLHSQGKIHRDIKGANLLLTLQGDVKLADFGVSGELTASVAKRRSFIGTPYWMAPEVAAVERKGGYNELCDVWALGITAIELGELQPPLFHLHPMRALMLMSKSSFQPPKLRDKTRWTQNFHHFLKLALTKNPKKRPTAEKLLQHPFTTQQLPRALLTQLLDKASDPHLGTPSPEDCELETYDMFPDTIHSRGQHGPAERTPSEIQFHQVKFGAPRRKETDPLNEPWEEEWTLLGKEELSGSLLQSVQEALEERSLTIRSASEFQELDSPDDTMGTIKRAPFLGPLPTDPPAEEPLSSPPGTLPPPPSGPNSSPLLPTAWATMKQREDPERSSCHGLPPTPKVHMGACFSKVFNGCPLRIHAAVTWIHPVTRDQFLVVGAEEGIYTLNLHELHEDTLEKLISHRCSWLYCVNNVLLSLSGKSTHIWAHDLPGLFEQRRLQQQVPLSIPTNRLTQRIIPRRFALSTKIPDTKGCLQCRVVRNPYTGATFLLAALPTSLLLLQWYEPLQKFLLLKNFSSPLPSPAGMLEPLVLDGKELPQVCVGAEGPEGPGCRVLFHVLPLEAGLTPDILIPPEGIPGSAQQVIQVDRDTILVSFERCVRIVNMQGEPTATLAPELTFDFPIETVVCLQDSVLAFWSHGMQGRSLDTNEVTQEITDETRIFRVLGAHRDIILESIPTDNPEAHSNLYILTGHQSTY
Outline: as §1

[6] = target: 140 purified human kinases (Homo sapiens, UniProt Q86V86)
Outline: as §1

Structure (SMILES): [Cu+2].[Cu+2].[Cu+2].c1ccc(-c2csc(NCCN(CCNc3nc(-c4ccccn4)cs3)CCNc3nc(-c4ccccn4)cs3)n2)nc1.c1ccc(-c2csc(NCCN(CCNc3nc(-c4ccccn4)cs3)CCNc3nc(-c4ccccn4)cs3)n2)nc1 [[L2Cu3]6+]
- % Activation, Mean value [1]: 14%
- % Inhibition Run 1 [1]: -9.9%
- % Inhibition Run 2 [1]: -17.9%
- % Inhibition, Mean [1]: -14%
- mean % activity [1]: 114%
- % activity ([1]; Run 1): 109.9%
- % activity ([1]; Run 2): 117.9%
- % Activity Run 1 ([1]; 10 µM): 109.90%
- % Activity Run 2 ([1]; 10 µM): 117.90%
- % Inhibition Run 1 [2]: 41.9%
- % Inhibition Run 2 [2]: 45.5%
- % Inhibition, Mean [2]: 44%
- mean % activity [2]: 56%
- % activity ([2]; Run 1): 58.1%
- % activity ([2]; Run 2): 54.5%
- % Inhibition Run 1 [3]: 28.4%
- % Inhibition Run 2 [3]: 32.5%
- % Inhibition, Mean [3]: 30%
- mean % activity [3]: 70%
- % activity ([3]; Run 1): 71.6%
- % activity ([3]; Run 2): 67.5%
- % Inhibition Run 1 ([4]; IRAK1): 41.6%
- % Inhibition Run 2 ([4]; IRAK1): 44.4%
- % Inhibition, Mean ([4]; IRAK1): 43%
- mean % activity ([4]; IRAK1): 57%
- % activity ([4]; IRAK1, Run 1): 58.4%
- % activity ([4]; IRAK1, Run 2): 55.6%
- % Inhibition Run 1 [5]: 83.9%
- % Inhibition Run 2 [5]: 84.3%
- % Inhibition, Mean [5]: 84%
- mean % activity [5]: 16%
- % activity ([5]; Run 1): 16.1%
- % activity ([5]; Run 2): 15.7%
- % Inhibition Run 1 ([6]; PIM3): 54.7%
- % Inhibition Run 2 ([6]; PIM3): 54.9%
- % Inhibition, Mean ([6]; PIM3): 55%
- mean % activity ([6]; PIM3): 45%
- % activity ([6]; PIM3, Run 1): 45.3%
- % activity ([6]; PIM3, Run 2): 45.1%

Structure (SMILES): CC(=O)[O-].CC(=O)[O-].CC(=O)[O-].CC(=O)[O-].CC(=O)[O-].CC(=O)[O-].[Zn+2].[Zn+2].[Zn+2].c1ccc(-c2csc(NCCN(CCNc3nc(-c4ccccn4)cs3)CCNc3nc(-c4ccccn4)cs3)n2)nc1.c1ccc(-c2csc(NCCN(CCNc3nc(-c4ccccn4)cs3)CCNc3nc(-c4ccccn4)cs3)n2)nc1 [[L2Zn3]6+]
- % Activation, Mean value [1]: 4.4%
- % Inhibition, Mean [1]: -4.4%
- % Inhibition, Run 1 / Run 2 [1]: -6% and -2.8%
- mean % activity [1]: 104%
- % activity ([1]; duplicate runs): 106% and 103%
- % Inhibition, Mean [2]: 33%
- % Inhibition, Run 1 / Run 2 [2]: 37% and 28%
- mean % activity [2]: 67%
- % activity ([2]; duplicate runs): 63% and 72%
- % Inhibition, Mean [3]: 16%
- % Inhibition, Run 1 / Run 2 [3]: 20% and 11%
- mean % activity [3]: 84%
- % activity ([3]; duplicate runs): 80% and 89%
- % Inhibition, Mean ([4]; IRAK1): 11%
- mean % activity ([4]; IRAK1): 89%
- % activity ([4]; IRAK1, duplicate runs): 97% and 81%
- % Inhibition, Mean [5]: 83%
- % Inhibition, Run 1 / Run 2 [5]: 88% and 78%
- mean % activity [5]: 17%
- % Activity inhibition Mean ([5]; 10 µM): 83.0%
- % Activity inhibition Run 1 ([5]; 10 µM): 88%
- % Activity inhibition Run 2 ([5]; 10 µM): 78%
- % Activity remaining Run 1 ([5]; 10 µM): 12%
- % Activity remaining Run 2 ([5]; 10 µM): 22%
- % activity ([5]; duplicate runs): 12% and 22%
- % Inhibition, Mean ([6]; PIM3): 36%
- % Inhibition, Run 1 / Run 2 ([6]; PIM3): 38% and 35%
- mean % activity ([6]; PIM3): 64%
- % activity ([6]; PIM3, duplicate runs): 62% and 65%
